Test results published in US8835442B2, “3-substituted 7-imino-2-thioxo-3, 7-dihydro-2H-thiazolo [4,5-di pyrimidin-6-yl—and process for preparation thereof” (Council of Scientific & Industrial Research, priority 2009, dated 2014).
Read-outs that look alike come from different tables or passages of the source.

Legend:
[1] = target: human A2AR (Homo sapiens, UniProt P29274); experiment: Competitive radioligand binding assay, [3H] ZM 241385, membranes of HEK 293 cells stably expressing human A2AR; conditions: for hA1/hA2A ratio: selectivity: Ki hA1 / Ki hA2A; for selectivity over A1 adenosine receptor: A2AR versus A1R binding
Chain of human A2AR (P29274 whole entry): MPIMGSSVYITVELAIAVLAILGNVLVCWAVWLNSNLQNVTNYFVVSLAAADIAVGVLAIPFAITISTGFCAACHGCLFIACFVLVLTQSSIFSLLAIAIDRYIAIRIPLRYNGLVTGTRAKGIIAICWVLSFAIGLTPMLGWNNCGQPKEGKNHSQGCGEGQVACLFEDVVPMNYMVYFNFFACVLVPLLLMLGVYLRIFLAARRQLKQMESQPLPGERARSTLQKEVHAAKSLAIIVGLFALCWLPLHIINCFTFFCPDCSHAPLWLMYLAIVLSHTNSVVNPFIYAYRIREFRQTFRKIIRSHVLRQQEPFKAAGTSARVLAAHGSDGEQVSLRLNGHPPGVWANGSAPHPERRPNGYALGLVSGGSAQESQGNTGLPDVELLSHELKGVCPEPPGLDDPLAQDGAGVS
Method: (§1) Aliquots of membrane proteins from both A2AR and A1R were rapidly frozen and stored at −20° C.
(§2) About 10 μg of membrane protein was added to each well of multiscreen 96-well plate equipped with GF/B filters. Incubation buffer (50 mM Tris, 1 mM EDTA, pH 7.4) containing adenosine deaminase (1 U/ml) was added to each well to remove endogenous adenosine bound to the receptors and volume was adjusted to 100 μl by adding incubation buffer. Plate was incubated at 37° C. for 1 hour. […] Final volume was adjusted to 200 μl by adding incubation buffer and incubated at 26° C. for 30 minutes. Binding reaction was terminated by rapid filteration of filter plates using vacuum manifold system. Filterate (unbound radioligand) was collected in a 96-well plate laying down the filter plate. Filters were washed three times with ice-cold washing buffer (50 mM Tris-Cl; 2.5 mM MgCl2 pH 7.4). Finally, 100 μl of scintillation fluid was added to all wells of plate containing unbound filtrate as well as to the filter plate (bound radioligand) and incubated overnight at room temperature. […] DPCPX were read using β-counter.
(§3) About 10 μg of membrane protein was added to each well of a 96-well filter plate. Incubation buffer containing adenosine deaminase (1 U/ml) was added to the membrane protein and incubated at 37° C. for 1 hour, to remove endogenous adenosine. […] Filter plates were incubated at 26° C. for 30 minutes and reaction was terminated by rapid filtration of unbound radioligands. Filters containing ligand bound receptors were washed three times with ice-cold washing buffer to completely remove any unbound radioligand or receptor. Finally, 100 μl of scintillation fluid was added to each well and incubated overnight at room temperature. β-counts emitted from bound radioligands ([^3H] ZM241385 and [^3H] DPCPX) were counted using β-counter. Duplicate values of β-counts per minute at corresponding concentrations (1 pM to 1 μM) were added to the data sheet of graph pad prism 4.0. Concentration values were considered as X-values and counts per minute were considered as Y-values (in duplicate). X-values were transformed into logX and Ki value was calculated using nonlinear regression (curve fit program).
(§4) Binding parameters were estimated by the computerized non-linear fitting program Graph Pad (Prism 4.0). […] Data were expressed as geometric means with 95% confidence limits in parentheses. […] P<0.05 was considered significant. All analysis was performed by using GraphPad Prism 4.0 (GraphPad Software, San Diego, USA). Results are given, as mean±S.E.M

[2] = target: T1, A2A receptor (Homo sapiens, UniProt P29274); experiment: cAMP functional assay in forskolin-pretreated HEK 293 cells; format: cell-based; conditions: 25 μM forskolin 2 h, then 100 nM compound for 24 h
T1 construct: host or cells: HEK 293
T1 sequence (P29274 whole entry): as above
Method: To determine the modulation in cAMP concentrations, cells were pre-treated with Forskolin. Forskolin is commonly used to activate adenylyl cyclase, so as to raise the levels of cAMP, in the various cell physiology experiments. […] Cells were washed with ice-cold PBS (pH 7.4). Further, cells were treated with 0.1M HCl, incubated for 10 minutes and visually inspected to verify cell lysis. Lysed cells were centrifuged at 1000 rpm at room temperature and the supernatant was used directly for cAMP assay using direct cAMP assay kit. All standards and samples were run in duplicate. 50 μl of the neutralizing reagent was added into each well of 96-well microplate coated with goat anti-rabbit IgG antibody, except the total activity (TA) and blank wells. Again, 100 μl of HCl (0.1M) was added into the NSB (Non-specific bound) and the Bo (0 pmol/ml standard) Wells: 100 μl of standards 1 to 5 was pippeted into the appropriate wells. 50 μl of 0.1M HCl was added into the NSB wells, followed by 50 μl of blue conjugate (alkaline phosphatase conjugated with cAMP) into each well except the TA and blank wells. 50 μl of yellow coloured primary antibody against cAMP into each well, except the blank, TA and NSB wells. Microplate was incubated at room temperature for 2 hours on a plate shaker. Wells were washed twice with 400 μl of wash solution. 5 μl of blue conjugate was added to the TA wells, followed by the addition of 200 μl of p-nitrophenyl phosphate substrate solution to every well. Plate was again incubated for 1 hour without shaking. Reaction was stopped by adding 50 μl of stop solution to every well.
The average net O.D. bound for each standard and sample was calculated using formula; Average Net OD=Average bound OD−Average NSB OD
The binding of each pair of standard wells as a percentage of the maximum binding well (Bo) was calculated using the formula; Percent Bound=Net OD/Net Bo OD×100
Standard curve was prepared using Logit-Log Paper plot by drawing percent bound (B/Bo) versus concentration of cAMP for the standards. The concentration of the cAMP in the samples was determined by interpolation.
Binding parameters were estimated by the computerized non-linear fitting program Graph Pad (Prism 4.0). […] Data were expressed as geometric means with 95% confidence limits in parentheses. Estimation of cAMP concentrations in functional assay was carried by Student's paired t-test. P<0.05 was considered significant. All analysis was performed by using GraphPad Prism 4.0 (GraphPad Software, San Diego, USA). Results are given, as mean±S.E.M

[3] = target: T2, human A1R (Homo sapiens, UniProt P30542); experiment: Competitive radioligand binding assay, [3H] DPCPX, membranes of HEK 293 cells stably expressing human A1R
T2 sequence (P30542 1-326): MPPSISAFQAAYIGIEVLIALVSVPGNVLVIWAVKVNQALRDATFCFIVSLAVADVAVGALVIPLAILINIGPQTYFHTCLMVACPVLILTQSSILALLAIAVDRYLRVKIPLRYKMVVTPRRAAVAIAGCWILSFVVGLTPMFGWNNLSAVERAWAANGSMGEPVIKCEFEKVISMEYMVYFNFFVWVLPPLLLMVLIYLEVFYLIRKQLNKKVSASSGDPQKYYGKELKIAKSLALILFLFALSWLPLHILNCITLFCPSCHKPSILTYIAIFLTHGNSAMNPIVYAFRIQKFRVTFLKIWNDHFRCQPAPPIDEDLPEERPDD
Method: as §1, §2, §3, §4

[4] = read-out: hA2A binding Ki ± SD, displacement of 1 nM [3H] ZM 241385, HEK 293 membranes, test compounds 1 pM to 1 μM
[5] = read-out: hA1 binding Ki ± SD, displacement of 0.75 nM [3H] DPCPX, HEK 293 membranes, test compounds 1 pM to 1 μM

Molecule | Ki [1] [nM] | hA1/hA2A ratio [1] | cAMP concentration [2] [nM] | melting point [°C] | selectivity over A1 adenosine receptor [1] [fold] | Ki [1, 4] [nM] | Ki [3, 5] [nM] | Ki [3] [nM]
CCn1c(=S)sc2c(=N)n(NC(N)=O)cnc21 [Compound 15, (3-Ethyl-7-imino-2-thioxo-3,7-dihydro-2H-thiazolo[4,5-d]pyrimidin-6-yl)-urea] | 0.09 ± 0.01 | 0.00177 | 0.085 | 212 |  |  |  | 
CCCn1c(=S)sc2c(=N)n(NC(N)=O)cnc21 [Compound 16] |  | 736.84 | 0.14 | 220 | 766 | 0.0038 ± 0.001 | 2.8 ± 0.8 | 
CCCCn1c(=S)sc2c(=N)n(NC(N)=O)cnc21 [Compound 17, (7-Imino-3-butyl-2-thioxo-3,7-dihydro-2H-thiazolo[4,5-d]pyrimidin-6-yl)-urea] | 0.089 ± 0.01 | 11.685 | 0.083 | 222 |  |  |  | 1.04 ± 0.84
C=CCn1c(=S)sc2c(=N)n(NC(N)=O)cnc21 [Compound 18] | 0.092 ± 0.01 | 5.11 | 0.08 | 202 |  |  |  | 0.47 ± 0.1
N=c1c2sc(=S)n(-c3ccccc3)c2ncn1NC(N)=O [Compound 19, (7-Imino-3-phenyl-2-thioxo-3,7-dihydro-2H-thiazolo[4,5-d]pyrimidin-6-yl)-urea] | 0.063 ± 0.008 | 23.81 | 0.078 | 225 |  |  |  | 1.5 ± 1.1
N=c1c2sc(=S)n(-c3ccc(I)cc3)c2ncn1NC(N)=O [Compound 20, (3-p-iodophenyl-7-imino-2-thioxo-3,7-dihydro-2H-thiazolo[4,5-d]pyrimidin-6-yl)-urea] | 0.017 ± 0.01 | 147.06 | 0.076 | 235 | 144 |  |  | 2.5 ± 1.1
N=c1c2sc(=S)n(Cc3ccccc3)c2ncn1NC(N)=O [Compound 21, (3-Benzyl-7-imino-2-thioxo-3,7-dihydro-2H-thiazolo[4,5-d]pyrimidin-6-yl)-urea] | 0.023 ± 0.014 | 6.09 | 0.067 | 190 |  |  |  | 0.14 ± 0.086
CCn1c(=S)sc2c(=N)n(NC(=O)c3ccco3)cnc21 [Compound 22, Furan-2-carboxylic acid (3-ethyl-7-imino-2-thioxo-3,7-dihydro-2H-thiazolo[4,5-d]pyrimidin-6-yl)-amide] | 1.2 ± 1.1 | 0.0133 | 0.12 | 226 |  |  |  | 0.016 ± 0.01
CCCn1c(=S)sc2c(=N)n(NC(=O)c3ccco3)cnc21 [Compound 23, Furan-2-carboxylic acid (7-imino-3-propyl-2-thioxo-3,7-dihydro-2H-thiazolo[4,5-d]pyrimidin-6-yl)-amide] | 0.024 ± 0.01 | 3.625 | 0.092 | 206 |  |  |  | 0.087 ± 0.05
CCCCn1c(=S)sc2c(=N)n(NC(=O)c3ccco3)cnc21 [Compound 24, Furan-2-carboxylic acid (3-butyl-7-imino-2-thioxo-3,7-dihydro-2H-thiazolo[4,5-d]pyrimidin-6-yl)-amide] | 0.029 ± 0.01 | 0.183 | 0.06 | 210 |  |  |  | 0.0053 ± 0.001
N=c1c2sc(=S)n(-c3ccccc3)c2ncn1NC(=O)c1ccco1 [Compound 26, Furan-2-carboxylic acid (7-imino-3-phenyl-2-thioxo-3,7-dihydro-2H-thiazolo[4,5-d]pyrimidin-6-yl)-amide] | 0.33 ± 0.75 | 0.026 | 0.048 | 228 |  |  |  | 0.0085 ± 0.001
Furan-2-carboxylic acid (7-imino-3-propenyl-2-thioxo-3,7-dihydro-2H-thiazolo[4,5-d]pyrimidin-6-yl)-amide [Compound 25] |  | 3.47 | 0.084 |  |  | 0.17 ± 0.1 | 0.59 ± 0.11 | 
